Data published in patent publication US20240254089A1, “MODULATORS OF MAS-RELATED G-PROTEIN RECEPTOR X4 AND RELATED PRODUCTS AND METHODS” (ESCIENT PHARMACEUTICALS, INC., priority 2020, published 2024).

Target: T1, human MRGPR X4 (Homo sapiens, UniProt Q96LA9)
T1 construct: expressed in transfected cells
Test: MRGPR X4 antagonist activity, IP-One Gq HTRF assay in stably transfected HEK cells
Format: cell-based
Conditions: not given
Method in brief: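 IC50 comes from HTRF IP-1 accumulation in stably transfected HEK cells expressing human MRGPR X4. Compounds (10 uM top, 1:3 serial, 10 points) were co-incubated with 10 μM bilirubin, 20 μM deoxycholic acid or 100 μM conjugated bilirubin in LiCl-containing buffer, pH 8, for 1 h at 37 °C plus 30 min at room temperature.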

T1 sequence (Q96LA9 whole entry): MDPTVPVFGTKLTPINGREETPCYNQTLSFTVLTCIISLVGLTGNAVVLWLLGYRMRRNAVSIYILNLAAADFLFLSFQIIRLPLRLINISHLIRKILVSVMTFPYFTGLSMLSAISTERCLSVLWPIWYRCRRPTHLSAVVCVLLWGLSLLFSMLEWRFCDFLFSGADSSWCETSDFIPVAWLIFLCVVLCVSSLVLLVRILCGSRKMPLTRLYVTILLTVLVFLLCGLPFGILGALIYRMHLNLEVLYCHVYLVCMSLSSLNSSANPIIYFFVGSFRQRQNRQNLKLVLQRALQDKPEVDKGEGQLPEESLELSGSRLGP

`O=C(NCCN1CCOCC1)c1nn(Cc2ccc(Cl)cc2)c2ccccc12` [Compound 351] and `Cn1cc(CNC(=O)c2nn(Cc3ccc(Cl)cc3)c3ccccc23)cn1` [Compound 353] cannot be ordered by IC50: > 2.5 µM for the first, > 2.5 µM for the second.

Compared with `Cc1cc(Cn2nc(C(=O)NCCc3nnc4n3CCCCC4)c3ccccc32)ccc1Cl` [Compound 7], `Cc1ccc(Cn2nc(C(=O)NCCc3noc(C4CC4)n3)c3ccccc32)cc1` [Compound 83] is higher in IC50: < 0.1 µM for the first, 0.501 to 1 µM for the second.

`O=C(NCCc1ccccc1OC(F)(F)F)c1cn(Cc2ccc(Cl)cc2)c2ccccc12` [Compound 194] and `O=C(NCCc1cccnc1C(F)(F)F)c1cn(Cc2ccc(Cl)cc2)c2ccccc12` [Compound 189] fall in the same range of IC50: 0.501 to 1 µM for the first, 0.501 to 1 µM for the second.

`N#Cc1ccc(Cn2nc(C(=O)NCCc3nnc4ccccn34)c3ccccc32)s1` [Compound 466] and `N#Cc1ccc(Cn2nc(C(=O)NCCc3nnc4ccccn34)c3ccccc32)cc1` [Compound 408] fall in the same range of IC50: 0.1 to 0.5 µM for the first, 0.1 to 0.5 µM for the second.

First: O=C(O)c1nn(Cc2ccc(Cl)c(Cl)c2)c2ccccc12 [Compound 318]
Second: O=C(O)c1nn(Cc2cccc(OC(F)(F)F)c2)c2ccccc12 [Compound 328]
The IC50 of the first is lower: 1 to 2.5 µM for the first, > 2.5 µM for the second. The first is the more potent here.

Compared with `Cc1ccc(Cn2nc(C(=O)NCCc3nc4c(s3)CCCC4)c3cc(Cl)ccc32)cc1` [Compound 110], `Cc1ccc(Cn2nc(C(=O)NCCc3nc4c(s3)CCC4)c3ccccc32)cc1` [Compound 36] is lower in IC50: 1 to 2.5 µM for the first, 0.1 to 0.5 µM for the second.

Compared with `Cc1cc(Cl)ccc1Cn1nc(C(=O)NCCc2nnc3ccccn23)c2ccccc21` [Compound 554], `O=C(NCCc1nnc2ccccn12)c1nn(CCOc2ccc(Cl)cc2)c2ccccc12` [Compound 485] is higher in IC50: < 0.1 µM for the first, 0.501 to 1 µM for the second.

First: O=C(NCCc1nnc2ccccn12)c1nn(Cc2nc3ccc(C(F)(F)F)cc3[nH]2)c2ccccc12 [Compound 522]
Second: O=C(NCCc1nnc2ccccn12)c1nn(Cc2ccc3nsnc3c2)c2ccccc12 [Compound 477]
The IC50 of the first is higher: 0.501 to 1 µM for the first, < 0.1 µM for the second.

`O=C(O)c1nn(Cc2ccc(Cl)cc2)c2cc(F)ccc12` [Compound 326] and `Cc1ccc(Cn2nc(C(=O)O)c3cc(Cl)ccc32)cc1` [Compound 330] cannot be ordered by IC50: > 2.5 µM for the first, > 2.5 µM for the second.

`CC(C)c1noc(Cn2nc(C(=O)NCCc3nnc4ccccn34)c3ccccc32)n1` [Compound 437] and `Cn1cc(C(=O)Cn2nc(C(=O)NCCc3nnc4ccccn34)c3ccccc32)cn1` [Compound 467] fall in the same range of IC50: 0.1 to 0.5 µM for the first, 0.1 to 0.5 µM for the second.

Compared with `COc1cccc(CCNC(=O)c2cn(Cc3ccc(Cl)cc3)c3ccccc23)c1` [Compound 164], `O=C(NCCc1ccc(C(F)(F)F)cc1)c1cn(Cc2ccc(Cl)cc2)c2ccccc12` [Compound 208] is higher in IC50: 0.1 to 0.5 µM for the first, 1 to 2.5 µM for the second.

First: CN1CCN(CCCn2nc(C(=O)NCCc3nnc4ccccn34)c3ccccc32)CC1 [Compound 444]
Second: Cc1c(Cn2nc(C(=O)NCCc3nnc4ccccn34)c3ccccc32)cccc1-c1ccccc1 [Compound 449]
The IC50 of the first is higher: > 2.5 µM for the first, 0.1 to 0.5 µM for the second. The second is the more potent here.

First: O=C(CNC(=O)c1nn(Cc2ccc(Cl)cc2)c2ccccc12)c1cccnc1 [Compound 132]
Second: O=C(NCc1ccnnc1)c1nn(Cc2ccc(Cl)cc2)c2ccccc12 [Compound 405]
The IC50 of the first is lower: 0.1 to 0.5 µM for the first, > 2.5 µM for the second.

First: O=C(NCCc1nc2c(s1)CCCC2)c1nn(Cc2ccccc2Cl)c2ccccc12 [Compound 95]
Second: Cc1nc(CCNC(=O)c2nn(Cc3ccc(Cl)cc3)c3ccccc23)sc1C(=O)O [Compound 88]
The IC50 of the first is higher: 1 to 2.5 µM for the first, 0.501 to 1 µM for the second. The second is the more potent here.

Compared with `O=C(NCCc1nnc2ccccn12)c1nn(Cc2ccc(Cl)cc2)c2cccc(Cl)c12` [Compound 547], `Cc1cccc2c1c(C(=O)NCCc1nnc3ccccn13)nn2Cc1ccc(Cl)cc1` [Compound 565] is lower in IC50: 0.501 to 1 µM for the first, < 0.1 µM for the second.

Compared with `O=C(NCCc1cccc(O)c1)c1nn(Cc2ccc(Cl)cc2)c2ccccc12` [Compound 9], `CC(=O)Nc1cccc(CNC(=O)c2nn(Cc3ccc(Cl)cc3)c3ccccc23)c1` [Compound 377] is higher in IC50: < 0.1 µM for the first, > 2.5 µM for the second. The first is the more potent here.

First: O=C(NCCn1cc(-c2cncnc2)nn1)c1nn(Cc2ccc(Cl)cc2)c2ccccc12 [Compound 145]
Second: O=C(NCc1cnn2ccccc12)c1nn(Cc2ccc(Cl)cc2)c2ccccc12 [Compound 388]
The IC50 of the first is lower: 0.501 to 1 µM for the first, > 2.5 µM for the second.

Compared with `Cc1ccc(CCNC(=O)c2cn(Cc3ccc(Cl)cc3)c3ccccc23)c(C)n1` [Compound 156], `Cc1ccc(Cn2cc(C(=O)NCCc3ccnn3C)c3ccccc32)cc1` [Compound 187] is higher in IC50: 0.1 to 0.5 µM for the first, 0.501 to 1 µM for the second.

`O=C(NCCc1ccccn1)c1cn(Cc2ccc(OC(F)F)cc2)c2ccccc12` [Compound 167] and `O=C(NCCc1cccnc1)c1cn(Cc2ccc(OC(F)F)cc2)c2ccccc12` [Compound 166] fall in the same range of IC50: 0.1 to 0.5 µM for the first, 0.1 to 0.5 µM for the second.

`O=C(NCCc1nnc2ccccn12)c1nn(Cc2ccc3ccccc3c2)c2ccc(F)cc12` [Compound 532, N-(2-([1,2,4]triazolo[4,3-a]pyridin-3-yl)ethyl)-5-fluoro-1-(naphthalen-2-ylmethyl)-1H-indazole-3-carboxamide] and `O=C(NCCc1nnc2ccccn12)c1nn(Cc2ccc(Cl)cc2)c2ccc(F)cc12` [Compound 2] cannot be ordered by IC50: < 0.1 µM for the first, < 0.1 µM for the second.

Compared with `Cc1ccc(Cn2nc(C(=O)NCCc3nc(C)cs3)c3ccccc32)cc1` [Compound 38], `O=C(NCCc1cccnc1)c1nn(Cc2ccc(Cl)c(F)c2)c2ccccc12` [Compound 17] is lower in IC50: 0.1 to 0.5 µM for the first, < 0.1 µM for the second.

`Cc1cccc(Cn2cc(C(=O)NCCc3cccnc3)c3ccccc32)c1` [Compound 201] and `O=C(NCCc1cccnc1)c1nn(Cc2cccc(F)c2)c2ccccc12` [Compound 96] fall in the same range of IC50: 1 to 2.5 µM for the first, 1 to 2.5 µM for the second.

With `Cc1ccccc1S(=O)(=O)NC(=O)c1nn(Cc2ccc(Cl)cc2)c2ccccc12` [Compound 287] the IC50 was 1 to 2.5 µM.

Same assay, conditions: versus 20 μM deoxycholic acid agonist; HEK cells expressing human MRGPR X4; read-out: MRGPRX4 Antagonist Activity

First: Cc1ccc(Cn2nc(C(=O)NCCc3nnc(C4CCOCC4)[nH]3)c3ccccc32)cc1 [Compound 109]
Second: O=C(NCCC(=O)N1CCOCC1)c1nn(Cc2ccc(Cl)cc2)c2ccccc12 [Compound 401]
The IC50 of the first is higher: 1 to 2.5 µM for the first, 0.501 to 1 µM for the second.

First: O=C(NCC1CCS(=O)(=O)CC1)c1nn(Cc2ccc(Cl)cc2)c2ccccc12 [Compound 390]
Second: CNC(=O)CS(=O)(=O)c1cn(Cc2ccc(Cl)cc2)c2ccccc12 [Compound 250]
The IC50 of the first is higher: > 2.5 µM for the first, 1 to 2.5 µM for the second. The second is the more potent here.

First: O=C(CS(=O)(=O)c1cn(Cc2ccc(Cl)cc2)c2ccccc12)Nc1cccnc1 [Compound 239]
Second: O=C(NCC1(c2cccnc2)CC1)c1cn(Cc2ccc(Cl)cc2)c2ccccc12 [Compound 230]
The IC50 of the first is lower: 0.1 to 0.5 µM for the first, > 2.5 µM for the second. The first is the more potent here.

`O=C(NCCc1nnc2ccccn12)c1nn(Cc2ccc(-c3ccccc3)cc2)c2ccccc12` [Compound 410] and `CS(=O)(=O)c1ccccc1Cn1nc(C(=O)NCCc2nnc3ccccn23)c2ccccc21` [Compound 435] cannot be ordered by IC50: > 2.5 µM for the first, > 2.5 µM for the second.

Compared with `O=C(NCCc1nnc2ccccn12)c1nn(Cc2cc(-c3ccc4c(c3)OCO4)no2)c2ccccc12` [Compound 500], `CS(=O)(=O)c1cccc(Cn2nc(C(=O)NCCc3nnc4ccccn34)c3ccccc32)c1` [Compound 510] is higher in IC50: 1 to 2.5 µM for the first, > 2.5 µM for the second. The first is the more potent here.

`Cc1cccc(S(=O)(=O)NC(=O)c2nn(Cc3ccc(OC(F)F)cc3)c3ccccc23)c1Cl` [Compound 283] and `Cc1cc(F)cc(S(=O)(=O)NC(=O)c2nn(Cc3ccc(OC(F)F)cc3)c3ccccc23)c1` [Compound 274] fall in the same range of IC50: 1 to 2.5 µM for the first, 1 to 2.5 µM for the second.

`O=C(O)c1ccc(S(=O)(=O)NC(=O)c2nn(Cc3ccc(OC(F)F)cc3)c3ccccc23)cc1` [Compound 311, 4-(N-(1-(4-(difluoromethoxy)benzyl)-1H-indazole-3-carbonyl)sulfamoyl)benzoic acid] showed an IC50 of 1 to 2.5 µM.
